One assay deals with MDA-MB-231 cells. Briefly: Cell cycle analysis by flow cytometry (PI). Particulars: MDA-MB-231, IC50 dose, 24 h; control 10.42%. Type of assay: cell-based. Here is the method: Propidium Iodide Flow Cytometry Kit for Cell Cycle Analysis (Abcam) was used according to manufacturer's instructions. Briefly, MDA-MB 231 cells (2 × 10^5 cells) were seeded in 6-well plates and cultured for 24 h. […] Cells were collected, washed with PBS and centrifuged. Subsequently, the cells were re-suspended and fixed in 66% ethanol on ice for at least 2 h. The cells were stained with a working solution containing propidium iodide (PI) in the dark at 37 °C for 30 min. DNA content of the cells were measured by flow cytometry using FACSCalibur (BD Biosciences, Mountain View, CA). The data were analyzed using the CellQuest software (BD Biosciences).[21]
On the technique in general: Flow cytometry measures light scatter and fluorescence of single cells or particles in a stream.

The next assay concerns the target T1, tubulin (Sus scrofa, UniProt P02550+P02554).
T1 construct: purchased Cytoskeleton, USA
The assay is described as follows: Tubulin polymerization inhibition assay. Type of assay: biochemical.

T1 sequence (P02554 whole entry): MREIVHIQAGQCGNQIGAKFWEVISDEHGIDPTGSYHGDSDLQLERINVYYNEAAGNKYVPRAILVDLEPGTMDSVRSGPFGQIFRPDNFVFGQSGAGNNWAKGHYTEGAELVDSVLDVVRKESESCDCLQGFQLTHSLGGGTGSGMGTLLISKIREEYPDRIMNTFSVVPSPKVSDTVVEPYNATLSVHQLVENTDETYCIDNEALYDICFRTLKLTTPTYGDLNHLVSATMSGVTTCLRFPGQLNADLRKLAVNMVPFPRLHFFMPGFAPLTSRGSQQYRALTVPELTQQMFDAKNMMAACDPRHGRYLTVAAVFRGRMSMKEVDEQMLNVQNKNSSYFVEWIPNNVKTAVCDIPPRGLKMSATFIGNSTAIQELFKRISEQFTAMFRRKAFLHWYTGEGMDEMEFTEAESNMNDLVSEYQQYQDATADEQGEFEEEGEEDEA
T1 sequence (P02550 whole entry): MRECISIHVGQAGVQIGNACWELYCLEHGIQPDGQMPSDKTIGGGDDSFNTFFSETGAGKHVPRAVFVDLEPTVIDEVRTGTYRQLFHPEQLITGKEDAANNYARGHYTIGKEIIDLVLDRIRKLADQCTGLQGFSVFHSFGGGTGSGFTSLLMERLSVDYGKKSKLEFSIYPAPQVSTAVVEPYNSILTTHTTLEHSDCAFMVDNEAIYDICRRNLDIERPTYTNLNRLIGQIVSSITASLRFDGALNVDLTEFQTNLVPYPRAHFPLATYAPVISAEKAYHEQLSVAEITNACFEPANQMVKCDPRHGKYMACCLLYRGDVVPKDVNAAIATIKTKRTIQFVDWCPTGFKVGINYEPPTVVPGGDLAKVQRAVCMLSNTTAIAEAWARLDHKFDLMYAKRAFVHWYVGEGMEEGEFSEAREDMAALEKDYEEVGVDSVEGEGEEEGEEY
Procedure for tubulin: Tubulin polymerization inhibition assay was performed using Tubulin Polymerization Assay Kit (Cytoskeleton, USA). 2 mg mL^−1 tubulin was dissolved in 80 mM PIPES pH 6.9, 2.0 mM MgCl2, 0.5 mM EGTA, 1.0 mM GTP and 15% glycerol. A 96-well plate was warmed to 37 °C for 10 minutes. Serial dilutions of the test compounds were prepared. The assay components were mixed. Polymerization was monitored using a plate reader at 360 nm and emission at 420 nm at 37 °C every 1 min intervals for 60 min. A dose–response curve was generated and the IC50 for tubulin polymerization inhibition was calculated.

As usually defined, the IC50 is the concentration that gives 50% inhibition. Low readings indicate greater potency, high ones weaker potency. For the compound `CCc1cccc2cc(-c3cc(-c4cc(OC)c(OC)c(OC)c4)[nH]c(=O)c3C#N)c(Cl)nc12` [Compound 4c, 4-(2-Chloro-8-ethylquinolin-3-yl)-2-oxo-6-(3,4,5-trimethoxyphenyl)-1,2-dihydropyridine-3-carbonitrile], in the assay with MDA-MB-231 cells, the “cells population at G2 and M phases” value was determined as 22.84%. The compound further showed an IC50 against tubulin of 17 ± 0.3 µM.
